# Source: patent US20110162437A1, “Biomarker for Mitochondrial Toxicity Associated with Phospholipidosis” (priority 2006, published 2011)
# Several values for one entry are separate records, joined by “and”; a condition that tells them apart may be missing. Equal entries are not always repeated. Entries after “also recorded” stand apart in the source; their conditions may differ.
# Legend:
# [1] = potential to induce phospholipidosis judged from amphiphilicity and basic pKa; settings: from reduced amphiphilicity and basic pKa
# From the text: The structural difference between both molecules can be mainly characterized by the exchange of the piperazine against a morpholine moiety in compound 2.
# lymphocytes = experiment: Electron microscopic examination of buffy coat lymphocytes for lamellar bodies (determination of phospholipidosis); type: in vivo, rat; settings: for lymphocytes %, pos. / lymphocytes positive (with lamellar bodies): individual rats, 1000 mg/kg/day
# Procedure: (§1) All animals received (human) care as specified by Swiss law and in accordance with the “Guide for the care and use of laboratory animals” published by the NIH. Male Wistar rats (5 animals/dose-group) were purchased from RCC (Füllingsdorf, Switzerland) and housed individually. Treated animals were dosed orally by gavage with several doses of test compounds (Table 1). Control animals received the same volume of vehicle as placebo. Necropsy was performed 48 (subgroup A) or 168 hours (subgroup B) after a single administration (=Day 1) and urine samples were collected in metabolism cages at 0 to 4° C. (automatically refrigerated by a Tecniplast sampling/cooling unit (RACK B940, Tecniplast, USA)) at the intervals given in the sampling schedule in Table 2 into labelled sample tubes containing 1 ml of an aqueous Na-azide (1%) solution. Before aliquoting, urine volumes were determined.
# Blood samples (as much as possible) were withdrawn from all animals at necropsy at about 48 hours after dosing (subgroup A) and about 168 hours after dosing (subgroup B)
# The samples were collected from the abdominal aorta or by cardiac puncture under terminal anaesthesia (CO2). A total of at least 2 ml blood was required to gain buffy coat (buffy coat=leukocyte band) samples.
# After fixation in 2.5% glutaraldehyde, the buffy coat samples from all animals were embedded in Epon. […] All thin sections were examined ultrastructurally. If possible, 200 lymphocytes per sample were examined for lamellar bodies. The results per sample include the total number of lymphocytes examined, the total number of positive lymphocytes (i.e. with lamellar bodies), the percentage of positive lymphocytes and a grading of severity of phospholipidosis (criteria see table 4)
# basic pKa value = type: physicochemical
# Male Wistar rats = experiment: PAG measurement by 1H NMR in urine after single oral dose, ratio versus time-matched controls; type: in vivo, rat; settings: for PAG: urine, individual animals
# Procedure: as §1
# Urine samples were taken on day -7,-2,-1, 1, 2, 3, 4, 5, 6 and 7, whereby Day 1 was the Day of dosing.
# Immediately after reaching the end of the sampling period, the volume was determined and the samples were centrifuged at 3000 u/min (500 g) for 10 minutes.
# Aliquot: Approximately 2 ml was transferred in 1.8 ml cryvials, round bottom, freestanding, with screw caps and septum for NMR-spectroscopic examinations (Bruker Analytik GmbH, Rheinstetten, Germany, Bruker part No. 85372). The vials were stored at −80° C.
# Urine samples were prepared and measured on a Bruker 500 MHz NMR instrument according to the COMET 1H-NMR protocol (Keun, H. C et al., (2002) Physiological variation and analytical reproducibility in metabonomic urinalysis. Chem. Res. Tox. 15, 1380-1386) and as described above. In total 467 urine samples were analyzed. After measurement, all data were processed by XWINMR 3.5.6 (Bruker Biospin AG, Fällanden). Representative spectra are depicted in FIG. 2. Phase correction and baseline correction were performed with NMRPROC 0.3 (T. Ebbels, H. Keun; Imperial College). Spectral data were binned using AMIX 2.6 (Bruker Biospin AG, Fällanden) following the COMET Data Processing & Pattern Recognition protocol (Keun, H. C., et al., (2002) Physiological variation and analytical reproducibility in metabonomic urinalysis. Chem. Res. Tox. 15, 1380-1386). QC check procedures (Dieterle F., Ross A., Schlotterbeck G., Senn H. (2006) Probabilistic Quotient Normalization as Robust Method to Account for Dilution of Complex Biological Mixtures. Application in 1H NMR Metabonomics. Anal. Chem. 78, 4281-4290) were applied on binned data to detect outliers. In total 7 outliers were detected and removed from further analysis. All data were mean-centered and normalized using the probabilistic quotient normalization (Dieterle F., Ross A., Schlotterbeck G., Senn H. (2006) Probabilistic Quotient Normalization as Robust Method to Account for Dilution of Complex Biological Mixtures. Application in 1H NMR Metabonomics. Anal. Chem. 78, 4281-4290.). All binned data were annotated and transferred to the ANT (ANT: Affymetrix NMR Toxicology Data System) database.
# The exact PAG quantification was performed according to following procedure: • Baseline subtraction of spectra • Integration of PAG peaks ((=7.47 ppm, (=7.39 ppm, (=3.79 ppm, and (=3.7 ppm respectively) and Citrate region ((=2.66-2.74 ppm and 2.50-2.58 ppm). • Quotient normalization (Dieterle F., Ross A., Schlotterbeck G., Senn H. (2006) Probabilistic Quotient Normalization as Robust Method to Account for Dilution of Complex Biological Mixtures. Application in 1H NMR Metabonomics. Anal. Chem. 78, 4281-4290.) • Divide each of the PAG bins by its average (all spectra) to correct for different relaxation times and number of protons • Calculate median out of the PAG bins • Calculate ratio versus time-matched controls
# [2] = necropsy 48 hours after application
# [3] = necropsy 168 hours after application
structure (smiles),measurement,setting,value
"CN(C(=O)C(C)(C)c1cc(C(F)(F)F)cc(C(F)(F)F)c1)c1cnc(N2CCOCC2)cc1-c1ccccc1Cl [Compound 2, 2-(3,5-Bis-trifluoromethyl-phenyl)-N-[4-(2-chloro-phenyl)-6-morpholin-4-yl-pyridin-3-yl]-N-methyl-isobutyramide]",potential to induce phospholipidosis,[1],low potential
same,"lymphocytes %, pos.",lymphocytes; [2],0%
same,lymphocytes positive (with lamellar bodies),lymphocytes; [2],0
same,"lymphocytes %, pos.",lymphocytes; [3],0%
same,lymphocytes positive (with lamellar bodies),lymphocytes; [3],0
same,lymphocytes containing cytoplasmic lamellar bodies (finding in words),"lymphocytes; rats, single oral dose, necropsy 48 or 168 hours after application",did not show any lymphocytes with lamellar bodies; also recorded: not affected; also recorded: did not show any lymphocytes containing cytoplasmic lamellar bodies
same,pKa,basic pKa value,4.07
same,PAG,"Male Wistar rats; High_Dose group, Time 0 (within 8 hours before treatment)",0.3191 and 0.4082 and 0.1757 and 0.4688 and 0.3904 and 0.3807 and 0.4568 and 0.5015 and 0.3805 and 0.4405
same,PAG,"Male Wistar rats; High_Dose group, Time 8 (within 8 hours after treatment)",0.6552 and 0.2654 and 0.3244 and 0.3661 and 0.5090 and 0.8253 and 0.6223 and 0.6794 and 0.5865 and 0.5553
same,PAG,"Male Wistar rats; High_Dose group, Time 24 (within 8 to 24 hours after treatment)",0.4048 and 0.3363 and 0.1408 and 0.3750 and 0.4284 and 0.6538 and 0.4408 and 0.2588 and 0.4111 and 0.3592
same,PAG,"Male Wistar rats; High_Dose group, Time −16 (1 day before treatment)",0.6280 and 0.3499 and 0.4531 and 0.5078 and 0.6008 and 0.3961 and 0.6035 and 0.5396 and 0.6968
same,PAG,"Male Wistar rats; High_Dose group, Time −40 (2 days before treatment)",0.5320 and 0.2568 and 0.4805 and 0.4717 and 0.4514 and 0.4760 and 0.6419 and 0.7515 and 0.6794 and 0.7696
same,PAG,"Male Wistar rats; Low_Dose group, Time 0 (within 8 hours before treatment)",0.6632 and 0.5179 and 0.2795 and 0.6376 and 0.3104 and 0.3524 and 0.4991 and 0.5273 and 0.2959 and 0.3191
same,PAG,"Male Wistar rats; Low_Dose group, Time 8 (within 8 hours after treatment)",0.8897 and 0.6310 and 0.3915 and 1.2919 and 0.3580 and 0.9744 and 0.3039 and 0.7208 and 0.6353 and 0.4304
same,PAG,"Male Wistar rats; Low_Dose group, Time 24 (within 8 to 24 hours after treatment)",0.6934 and 0.3762 and 0.4835 and 0.8446 and 0.3743 and 0.5615 and 0.3777 and 0.4892 and 0.3393 and 0.4166
same,PAG,"Male Wistar rats; Low_Dose group, Time 48 (2 days after treatment)",0.6453 and 0.3298 and 0.3762 and 0.7958 and 0.1879
same,PAG,"Male Wistar rats; Low_Dose group, Time −16 (1 day before treatment)",1.0275 and 1.1002 and 0.4610 and 1.3440 and 0.2541 and 0.7357 and 0.5260 and 0.6162 and 0.5218 and 0.4132
same,PAG,"Male Wistar rats; Low_Dose group, Time −40 (2 days before treatment)",0.3418 and 0.5238 and 0.5336 and 0.7115 and 0.6105 and 0.5232
same,PAG levels of both dose groups versus time matched controls,"Male Wistar rats; rat, single oral dose 300 and 1000 mg/kg",comparable to their time matched controls
same,dose dependant change of PAG levels in urine,"Male Wistar rats; rat, single oral dose, both dose groups, normalized to time matched controls",No significant dose dependant change
